Experimental data: patent publication US20160010047A1, “DEVICE AND METHOD FOR WETTING A SAMPLE WITH AN AEROSOL” (Helmholtz Zentrum Muenchen Deutsches Forschungszentrum fuer …, priority 2013, published 2016)

Tested on: human pulmonary cell line (A549) stimulated with TNFα; interleukin 8 (IL-8)
Assay: Anti-inflammatory effect on TNFα-stimulated A549 cells (IL-8 as inflammatory marker), substance applied as aerosol at the ALI with device 2 or pipetted on submerged cells
Assay type: cell-based
Conditions: FIG. 4
Excerpt: On the other hand, if polarized lung epithelial cells (e.g. primary cells) are used, significant differences in the biological response can be expected. After stimulation of A549 cells with the tumor necrosis factor α (TNF α), the interleukin 8 (IL-8) as inflammatory marker is induced approximately 7-fold (corresponds to value 1 in FIG. 4), relative to the basal value (non-stimulated cells). […] This exemplifies that with device 2, aerosolized active substances can be applied accurately dosed and without loss of bioactivity (e.g. due to shear stresses during nebulization) on human pulmonary cells at the ALI. Thus, device 2 is suitable for the systematic screening of substances with respect to their potential as an active ingredient in aerosolized form.
This device 2 is thereby validated as a tool for quantitative drug screening for aerosolized liquid substances.

CC(C)C[C@H](NC(=O)[C@H](Cc1ccccc1)NC(=O)c1cnccn1)B(O)O [Bortezomib]
dose-response curve after administration in aerosolized form with device 2 (ALI) compared with reference curve (substance pipetted on submerged cells) (A549 cells at the ALI, TNFα-stimulated): identical to the reference curve | reduction of the TNFα-induced inflammatory effect (IL-8 induction), factor (A549 cells, non-polarized, stimulated with TNFα, dose-dependent): ≤ 2
